One assay has as its target T1, BACE1 (Homo sapiens, UniProt P56817).
T1 construct: endogenous in cells; host or cells: HEK293 APP cells (HEK293 expressing APP)
Kind of assay: Cellular Aβ-lowering assay (Abeta 40 AlphaLISA, HEK293 APP cells). The format is cell-based. The note with it: 18-20 hrs incubation, Aβ40 in culture supernatant, read-out: BACE1 cell act. Aβ40 IC50. Here is the method: Cellular Aβ-lowering Assay:
The Abeta 40 AlphaLISA Assay can be used. The HEK293 APP cells were seeded in 96 well Microtiter plates in cell culture medium (Iscove's, plus 10% (v/v) fetal bovine serum, penicillin/streptomycin) to about 80% confluency and the compounds were added at a 3× concentration in ⅓ volume of culture medium (final DMSO concentration was kept at 1% v/v). After 18-20 hrs incubation at 37° C. and 5% CO2 in a humidified incubator, the culture supernatants were harvested for the determination of Aβ40 concentrations using Perkin-Elmer Human Amyloid beta 1-40 (high specificity) Kit (Cat# AL275C).
In a Perkin-Elmer White Optiplate-384 (Cat# 6007290), 2 ul culture supernatants were combined with 2 μl of a 10× AlphaLISA Anti-hAβAcceptor beads+Biotinylated Antibody Anti-Aβ1-40 Mix (50 μg/mL/5 nM). After 1 hour room temperature incubation, 16 μl of a 1.25 × preparation of Streptavidin (SA) Donor beads (25 μg/mL) were added and incubated for 30 minutes in the Dark. Light Emission at 615 nm was then recorded using EnVision-Alpha Reader. Levels of Aβ 40 in the culture supernatants were calculated as percentage of maximum signal (cells treated with 1% DMSO without inhibitor). The IC50 values were calculated using the Excel XLfit software.
A general note: Bead proximity is the source of the signal in Alpha formats.

Assay [1] has as its system Aβ40 in brain of wild-type mice. Kind of assay: Lowering of Aβ40 in brain of wild-type mice. The following applies: female C57Bl/6J mice, 30 mg/kg per os, 4 h after dose, brain Aβ40 as percentage of the vehicle group. The format is in vivo, mouse. Here is the method:
Lowering of Aβ40 in Brain of Wild-Type Mice:
Animals and Housing Conditions. Animals were maintained in a 12/12 h light/dark cycle, with lights starting at 6 a.m., and experiments were conducted during the light phase. Animal housing and experimental procedures were in line with ethical and legal guidelines and were authorized by local veterinary authorities.
Experiment. Female C57B1/6J mice were treated with a dose of 30 mg/kg of the compounds, 3-4animals per treatment group. The test compound was dissolved in 5% EtOH, 10% Solutol, and was applied per os at 10 mL/kg. After 4 h, the animals were sacrificed and brain and plasma were collected. The brain was cut into halves and immediately frozen on dry ice. Brain was used for measurement of Aβ40 and plasma was used for determination of compound exposure. […] Brain tissue was homogenized in 2% DEA buffer in a Roche MagnaLyser (20″, 4000 rpm) and subsequently centrifuged for 1 h at 100000 g. DEA was reduced to 0.2% in 50 mM NaCl and one-half of the DEA lysate was passed over an Oasis Solid phase extraction plate (Waters; cat. no. 186000679), which had been activated with MeOH and equilibrated in dH2O (1 mL each). After washes in 10% and 30% MeOH (1 mL each), the Aβ-peptides were eluted in 0.8 mL of 2% NH4OH in 90% MeOH. The eluate was dried over a N2 flow, and the dried sample was reconstituted in 30 μL of AlphaLISA assay buffer. Aβ40 was determined by an AlphaLISA assay (Perkin-Elmer). In a white 96-well, half area microplate (Perkin-Elmer cat. no. 6005561), 20 μL of the reconstituted sample were mixed with 5 μL of biotinylated BAP-24 (specific for C-terminus of Aβ40) (Brockhaus, M.; Grunberg, J.; Rohrig, S.; Loetscher, H.; Wittenburg, N.; Baumeister, R.; Jacobsen, H.; Haass, C. Caspasemediated cleavage is not required for the activity of presenilins in amyloidogenesis and NOTCH signaling. NeuroReport 1998, 9, 1481-1486.) stock=4.4 mg/mL, f.c.5.5 μg/mL), and 5 μL 252Q6 acceptor beads (252Q6 antibody, Invitrogen AMB0062) had been previously conjugated with AlphaLISA Acceptor beads (Perkin-Elmer cat. no. 6772002); final dilution 1:500). The mix was incubated for 1 h at RT in the dark. Then 20 μL of Streptavin-coated Donor Beads (Perkin-Elmer cat. no. 6760002, final dilution 1:125) were added and this final mix was incubated in the dark for another 30 min at RT before RFU was measured in an AlphaScreen Reader (Perkin-Elmer Envision 2104). The value obtained for Aβ40 in the treated animals was related to the value in the vehicle group and is given in %. Alternatively a commercial ELISA was used for Aβ40 determination (Wako ELISA: (“Human/Rat β Amyloid (40) ELISA kit Wako II”; cat nr. 294-64701) following the manufacture's instruction. Also here the Aβ-lowering efficacy was calculated as percentage of the vehicle group.

T1 sequence (P56817 46-501): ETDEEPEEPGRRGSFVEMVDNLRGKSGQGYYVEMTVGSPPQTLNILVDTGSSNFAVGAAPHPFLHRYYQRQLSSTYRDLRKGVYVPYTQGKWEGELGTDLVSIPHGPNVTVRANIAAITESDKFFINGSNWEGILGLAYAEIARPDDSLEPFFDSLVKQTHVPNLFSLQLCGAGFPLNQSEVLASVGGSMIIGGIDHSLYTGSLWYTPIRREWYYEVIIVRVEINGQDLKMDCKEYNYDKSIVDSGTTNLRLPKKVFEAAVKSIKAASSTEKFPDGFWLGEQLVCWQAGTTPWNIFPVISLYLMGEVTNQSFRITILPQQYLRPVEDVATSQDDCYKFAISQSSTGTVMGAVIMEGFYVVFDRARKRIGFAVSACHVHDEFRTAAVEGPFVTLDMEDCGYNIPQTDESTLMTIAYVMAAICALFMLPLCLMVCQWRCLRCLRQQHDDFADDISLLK

Turning to `Cc1cc(C#N)cnc1C(=O)Nc1ccc(F)c(C2(C)CS3(=O)=NCCCC3(C)C(N)=N2)n1` (single isomer, unassigned) [Example 1, N-[6-(5-amino-4a,7-dimethyl-9-oxido-2,3,4,4a,7,8-hexahydro-9λ^4-[1,4]thiazino[2,1-f][1,2]thiazin-7-yl)-5-fluoropyridin-2-yl]-5-cyano-3-methylpyridine-2-carboxamide], at BACE1, the concentration for half-maximal inhibition (IC50) was 0.2 nM. In assay [1] (30 mg/kg), the “Aβ40 (wt mice, brain)” value was found to be 62%. In the same order, the values of `Cc1cc(C#N)cnc1C(=O)Nc1ccc(F)c(C2(C)CS3(=O)=NCCCCC3(C)C(N)=N2)n1` (single isomer, unassigned) [Example 2, N-[6-(6-amino-5a,8-dimethyl-10-oxido-3,4,5,5a,8,9-hexahydro-2H-10λ^4-[1,4]thiazino[2,1-g][1,2]thiazepin-8-yl)-5-fluoropyridin-2-yl]-5-cyano-3-methylpyridine-2-carboxamide] are 0.2 nM and 48%. The matching figures for `Cc1cc(C#N)cnc1C(=O)Nc1ccc(F)c(C2(C)CS3(=O)=NCCCCC3(C)C(N)=N2)n1` (single isomer, unassigned) [Example 3, N-[6-(6-amino-5a,8-dimethyl-10-oxido-3,4,5,5a,8,9-hexahydro-2H-10λ^4-[1,4]thiazino[2,1-g][1,2]thiazepin-8-yl)-5-fluoropyridin-2-yl]-5-cyano-3-methylpyridine-2-carboxamide]: 13.8 nM and 95%.

For the compound `Cc1cc(C#N)cnc1C(=O)Nc1ccc(F)c(C2(C)CS3(=O)=NCCCCC3(C)C(N)=N2)n1` (single isomer, unassigned) [Example 4, N-[6-(6-amino-5a,8-dimethyl-10-oxido-3,4,5,5a,8,9-hexahydro-2H-10λ^4-[1,4]thiazino[2,1-g][1,2]thiazepin-8-yl)-5-fluoropyridin-2-yl]-5-cyano-3-methylpyridine-2-carboxamide], the IC50 at BACE1 stood at 0.4 nM. Besides, in assay [1] (30 mg/kg), the “Aβ40 (wt mice, brain)” value turned out to be 83%.

As to `Cc1cc(C#N)cnc1C(=O)Nc1ccc(F)c(C2(CF)CS3(=O)=NCCCC3(C)C(N)=N2)n1` (single isomer, unassigned) [Example 5], the IC50 on BACE1 was found to be 0.8 nM. Moreover, the “Aβ40 (wt mice, brain)” value in assay [1] (30 mg/kg) is recorded as 88%.

Regarding `Cc1cc(C#N)cnc1C(=O)Nc1ccc(F)c(C2(CF)CS3(=O)=NCCCC3(C)C(N)=N2)n1` (single isomer, unassigned) [Example 6], the IC50 at BACE1 worked out at 218 nM. The same measure, in the same setting: the result for `CC12CCCN=S1(=O)CC(CF)(c1nc(NC(=O)c3ccc(OCC(F)(F)C(F)F)cn3)ccc1F)N=C2N` (single isomer, unassigned) [Example 7] reads 46 nM; that for `Cc1cc(C#N)cnc1C(=O)Nc1ccc(F)c(C2(CF)CS3(=O)=NCCCC3(C)C(N)=N2)n1` (single isomer, unassigned) [Example 8], more than 200 nM.

For the compound `Cc1cc(C#N)cnc1C(=O)Nc1ccc(F)c(C2(CF)CS3(=O)=NCCCC3(C)C(N)=N2)n1` (single isomer, unassigned) [Example 9], the IC50 on BACE1 came to 98 nM. The “Aβ40 (wt mice, brain)” value in assay [1] (30 mg/kg) is on record as 113%.

Consider `Cc1cc(C#N)cnc1C(=O)Nc1ccc(F)c(C2(C)CS3(=O)=NCCCC3(C)C(N)=N2)n1` (single isomer, unassigned) [Example 10], for which the IC50 on BACE1 is 2.9 nM. For the same compound, the “Aβ40 (wt mice, brain)” value in assay [1] (30 mg/kg) amounted to 89%.

For the compound `CC1(c2nc(NC(=O)c3ncc(C#N)cc3Cl)ccc2F)CS2(=O)=NCCCC2(C)C(N)=N1` (single isomer, unassigned) [Example 11], at BACE1, the IC50 was found to be 2.3 nM. In addition, the “Aβ40 (wt mice, brain)” value in assay [1] came out at 90%. In the case of `CC1(c2nc(NC(=O)c3ccc(OCC(F)(F)C(F)F)cn3)ccc2F)CS2(=O)=NCCCC2(C)C(N)=N1` (single isomer, unassigned) [Example 12], the IC50 at BACE1 was found to be 320 nM. The “Aβ40 (wt mice, brain)” value in assay [1] is given as 77%.

In general, IC50 refers to the concentration that gives 50% inhibition.

(Values after patent US9920072B2, “BACE1 inhibitors” (Hoffmann-La Roche Inc., priority 2014, dated 2018).)
